Experimental data as given in article PMC10107299, “Neutralizing the Impact of the Virulence Factor LecA from Pseudomonas aeruginosa on Human Cells with New Glycomimetic Inhibitors” (Angewandte Chemie (International Ed. in English), 2023).

Test: In vivo pharmacokinetic study in mice
Parameters: species or system CD-1 mice
Settings: 1 mg kg^−1 i.v.; for Cmax: male, CD-1, mouse, urine, iv
Method: Encouraged by these promising in vitro results, an in vivo pharmacokinetic study was conducted for H2 and L2 in mice (1 mg kg^−1, i. v.) and in rats for L2 (10 mg kg^−1, i. v.). Compound concentrations were monitored in plasma and urine (Figure 6). H2 and L2 were cleared from mouse plasma within 1 h. Both compounds rapidly reached high concentrations in urine, several orders of magnitude above their respective in vitro LecA binding affinity. In fact, concentrations above the K ds were detected over the entire observation period of 5 h. […] In rats, higher amounts of L2 were detected both in plasma and urine, not solely corresponding to the 10‐fold increased dose. […] Importantly, high levels of L2 were present in rat urine even 24 h after administration.
Pharmacokinetic studies in mice
For pharmacokinetic experiments, outbred male CD-1 mice (Charles River, Germany), 4-weeks-old, were used. The animal studies were conducted in accordance with the recommendations of the European Community (Directive 86/609/EEC, 24 November 1986). All animal procedures were performed in strict accordance with the German regulations of the Society for Laboratory Animal Science (GV-SOLAS) and the European Health Law of the Federation of Laboratory Animal Science Associations (FELASA). Animals were excluded from further analysis if sacrifice was necessary according to the humane endpoints established by the ethical board. All experiments were approved by the ethical board of the Niedersächsisches Landesamt für Verbraucherschutz und Lebensmittelsicherheit, Oldenburg, Germany (33.19-42502-04-20/3522). L2 and H2 were dissolved in water and administered in individual PK studies (N = 2 per study) at 1 mg/kg intravenously. Up to 25 µl blood was collected from the lateral tail vein and time points t = 0.25, 0.5, 1 and 3 hours. At t = 5 hours animals were euthanized to collect blood. At time points t = 0.25, 0.5, 1, 3 and 5 hours spontaneous urine was collected as well. Whole blood was collected into Eppendorf tubes coated with 0.5 M EDTA and immediately spun down at […]
15870 x g for 10 min at 4 °C. […]
Rats were provided with a catheter in the jugular vein 2 - 3 days prior to drug administration and blood sampling. According to national animal welfare guidelines, rats were treated once with Carprofen (5 mg/kg) directly after catheterization. Catheter was rinsed daily with K3EDTA. […]
First, a calibration curve was prepared by spiking different concentrations of L2 and H2 into mouse plasma, rat plasma or mouse urine (matrix for mouse and rat PK samples) from CD-1 mice. […] Samples from the mouse PK study with H2 in mice and from the rat PK study with L2 were analyzed via HPLC-MS/MS as described in the HPLC-MS analysis section above. PK samples from the mouse PK study with L2 were analyzed using an Agilent 1290 […]

| SMILES | Time to clearance from mouse plasma [h] | Cmax [µM] |
| --- | --- | --- |
| O=C(CCc1ccc(O[C@@H]2O[C@H](CO)[C@H](O)[C@H](O)[C@H]2O)cc1)Nc1ccc(OCCOc2ccc(NC(=O)CCc3ccc(O[C@@H]4O[C@H](CO)[C@H](O)[C@H](O)[C@H]4O)cc3)cn2)nc1 [Compound H2] | ≤ 1 | 63 |
| O=C(CCc1ccc(O[C@@H]2O[C@H](CO)[C@H](O)[C@H](O)[C@H]2O)cc1)Nc1ccc(CCc2ccc(NC(=O)CCc3ccc(O[C@@H]4O[C@H](CO)[C@H](O)[C@H](O)[C@H]4O)cc3)cc2S(=O)(=O)O)c(S(=O)(=O)O)c1 [Compound L2] | ≤ 1 | 13.4 |
